This is an account of results in PMC7482410 (ACS Omega, 2020).

The target of assay [1] is murine CCL2 (mCCL2-P8A, MCP-1) (Mus musculus, UniProt P10148, P31A). In words: intrinsic Trp fluorescence quenching titration. It is filed as binding.
The target in assay [2] is murine CCL2 (mCCL2-WT, MCP-1) (Mus musculus, UniProt P10148). The assay is described as follows: intrinsic Trp fluorescence quenching titration. In kind it is binding.
Assay [3] concerns the target human CCL2 (hCCL2-WT, MCP-1) (Homo sapiens, UniProt P13500). The assay is described as follows: intrinsic Trp fluorescence quenching titration. It is filed as binding.
The target of assay [4] is human CCL2 (hCCL2-P8A, MCP-1) (Homo sapiens, UniProt P13500, P31A). In words: intrinsic Trp fluorescence quenching titration. In kind it is binding.
In assay [5] the target is DDAH (Pseudomonas aeruginosa) (UniProt Q9I4E3). To be noted: cited from earlier work.
In assay [6] the target is murine CCL2 wild type (monocyte chemoattractant protein-1) (murine) (UniProt P10148). The assay is described as follows: NMR translational diffusion.

Chain of human CCL2 (hCCL2-P8A, MCP-1) (P13500 24-99 P31A): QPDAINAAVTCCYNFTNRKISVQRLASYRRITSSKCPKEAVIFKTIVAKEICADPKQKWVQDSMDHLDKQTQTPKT
Chain of murine CCL2 (mCCL2-WT, MCP-1) (P10148 24-99 limits assumed): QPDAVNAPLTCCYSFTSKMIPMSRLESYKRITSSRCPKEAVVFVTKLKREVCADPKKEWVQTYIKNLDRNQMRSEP
Chain of murine CCL2 (mCCL2-P8A, MCP-1) (P10148 24-99 P31A limits assumed): as the sequence (P10148 24-99 limits assumed) above, with P8A counted along it
Chain of DDAH (Q9I4E3 whole entry): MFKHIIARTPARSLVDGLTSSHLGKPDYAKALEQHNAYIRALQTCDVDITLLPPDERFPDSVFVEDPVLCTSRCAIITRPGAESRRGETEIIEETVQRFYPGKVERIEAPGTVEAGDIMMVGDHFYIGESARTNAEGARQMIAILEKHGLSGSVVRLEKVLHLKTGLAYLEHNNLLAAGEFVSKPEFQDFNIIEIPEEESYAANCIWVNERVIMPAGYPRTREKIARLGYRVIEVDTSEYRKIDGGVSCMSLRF
Chain of human CCL2 (hCCL2-WT, MCP-1) (P13500 24-99): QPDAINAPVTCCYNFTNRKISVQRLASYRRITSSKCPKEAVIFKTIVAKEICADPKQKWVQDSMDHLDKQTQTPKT

Take `O=C(O)[C@H]1O[C@@H](Oc2cc3oc(-c4ccccc4)cc(=O)c3c(O)c2O)[C@H](O)[C@@H](O)[C@@H]1O` [BA]: the Kd came out at 270 ± 20 nM in assay [1], 290 ± 20 nM in assay [2], 250 ± 20 nM in assay [3] and 260 ± 20 nM in assay [4].

Turning to DDAH (from UniProt Q9I4E3), the Kd in assay [5] was 500 nM.

The compound “murine CCL2 wild type (monocyte chemoattractant protein-1) (from UniProt P10148 24-148) (natural protein)” registered a stoichiometry N in assay [6] of 2.

By Kd is commonly meant a measure of binding affinity in units of concentration. Usually stoichiometry N stands for a count of units in the complex or per binding partner.
